Laboratory results as given in patent US7968595B2, “Substituted 4-aryl-chromene as activator of caspases and inducer of apoptosis and as antivascular agent and the use thereof” (Cytovia, Inc., priority 2006, dated 2011).

What was measured:
[1] = test system: MDAMB435; test: Inhibition of cell proliferation (GI50), MDAMB435; type: cell-based; conditions: Homo sapiens, MDA-MB-435; MDAMB435 cells, 72 h, CellTiter-Glo
Description: (§1) Human breast cancer cells MX-1 and MDAMB435, hepatocarcinoma cells SNU398, colon cancer cells HCT116 and HeLa cells were grown and harvested as in Example 7. An aliquot of […] of cells (4.4×10^4 cells/mL) was added to a well of a 96-well microtiter plate containing 5 μL of a 10% DMSO in RPMI-1640 media solution containing 10 nM to 100 μM of R(−)-2,7,8-triamino-4-(3-bromo-4,5-dimethoxy-phenyl)-3-cyano-4H-chromene (1 nM to 10 μM final). An aliquot of 45 μL of cells was added to a well of a 96-well microtiter plate containing 5 μL of a 10% DMSO in RPMI-1640 media solution without compound as the control sample for maximal cell proliferation (LMax). The samples were mixed by agitation and then incubated at 37° C. for 72 h in a 5% CO2−95% humidity incubator. After incubation, the samples were removed from the incubator and 25 μL of CellTiter-Glo™ reagent (Promega) was added. The samples were mixed by agitation and incubated at room temperature for 10-15 min. Plates were then read using a luminescent plate reader (Model SPECTRAfluor Plus, Tecan) to give Ltest values.
(§2) Baseline for GI50 (dose for 50% inhibition of cell proliferation) of initial cell numbers was determined by adding an aliquot of 45 μL of cells or 45 μL of media, respectively, to wells of a 96-well microtiter plate containing 5 μL of a 10% DMSO in RPMI-1640 media solution. […]

[2] = test system: T-47D; test: Caspase activation assay in T-47D cells; type: cell-based; conditions: Homo sapiens; T47D cells, 24 h incubation; read-out: Caspase activation potency EC50 T47D
Description: (§3) Human breast cancer cell lines T-47D and ZR-75-1, human colon cancer cell line DLD-1 and human non-small cell lung cancer cell line H1299 were grown according to media component mixtures designated by American Type Culture Collection+10% FCS (Invitrogen Corporation), in a 5% CO2−95% humidity incubator at 37° C. T-47D and ZR-75-1 cells were maintained at a cell density between 30 and 80% confluency at a cell density of 0.1 to 0.6×10^6 cells/mL. Cells were harvested at 600×g and resuspended at 0.65×10^6 cells/mL into appropriate media+10% FCS. An aliquot of […] of cells was added to a well of a 96-well microtiter plate containing 5 μl of a 10% DMSO in RPMI-1640 media solution containing about 0.16 to 10 μM of 2,7,8-triamino-4-(3-bromo-4,5-dimethoxy-phenyl)-3-cyano-4H-chromene (1) or other test compounds (0.016 to 1 μM final). An aliquot of 45 μl of cells was added to a well of a 96-well microtiter plate containing 5 μl of a 10% DMSO in RPMI-1640 media solution without test compound as the control sample. The samples were mixed by agitation and then incubated at 37° C. for 24 h in a 5% CO2−95% humidity incubator. After incubation, the samples were removed from the incubator and 50 μl of a solution containing 20 μM of N-(Ac-DEVD)-N′-ethoxycarbonyl-R110 (SEQ ID No:1) fluorogenic substrate (Cytovia, Inc.; U.S. Pat. No. 6,335,429), 20% sucrose (Sigma), 20 mM DTT (Sigma), 200 mM NaCl (Sigma), 40 mM Na PIPES buffer pH 7.2 (Sigma), and 500 μg/ml lysolecithin (Calbiochem) was added. The samples were mixed by agitation and incubated at room temperature. Using a fluorescent plate reader (Model 1420 Wallac Instruments), an initial reading (T=0) was made about 1-2 min after addition of the substrate solution, employing excitation at 485 nm and emission at 530 nm, to determine the background fluorescence of the control sample. After the 3 h incubation, the samples were read for fluorescence as above (T=3 h).
(§4) The Relative Fluorescence Unit values (RFU) were used to calculate the sample readings as follows: RFU(T=3h)−Control RFU(T=0)=Net RFU(T=3h)
(§5) The activity of caspase cascade activation was determined by the ratio of the net RFU value for 2,7,8-triamino-4-(3-bromo-4,5-dimethoxy-phenyl)-3-cyano-4H-chromene or other test compound to that of control samples. The EC50 (nM) was determined by a sigmoidal dose-response calculation (Prism 2.0, GraphPad Software Inc.).

[3] = test system: MX-1; test: Inhibition of cell proliferation (GI50), MX-1; type: cell-based; conditions: Homo sapiens; MX1 cells, 72 h, CellTiter-Glo
Description: as §1, §2

[4] = test system: ZR-75-1; test: Caspase activation assay in ZR-75-1 cells; type: cell-based; conditions: Homo sapiens, ZR751 cells, 24 h incubation, read-out: Caspase activation potency EC50 ZR751
Description: as §3, with “After incubation, the samples were removed from the incubator and 50 μl of a solution containing 20 μM of N-(Ac-DEVD)-N′-ethoxycarbonyl-R110 (SEQ ID No:1) fluorogenic substrate (Cytovia, Inc.; U.S. Pat. No. 6,335,429), 20% sucrose (Sigma), 20 mM DTT (Sigma), 200 mM NaCl (Sigma), 40 mM Na PIPES buffer pH 7.2 (Sigma), and 500 μg/ml lysolecithin (Calbiochem) was added. The samples were mixed by agitation and incubated at room temperature.” left out
as §4, §5

[5] = test system: solid tumor cells; test: Caspase cascade activation and induction of apoptosis, overall statement; type: cell-based, human; conditions: summary of Table I
Description: as §3, with “After incubation, the samples were removed from the incubator and 50 μl of a solution containing 20 μM of N-(Ac-DEVD)-N′-ethoxycarbonyl-R110 (SEQ ID No:1) fluorogenic substrate (Cytovia, Inc.; U.S. Pat. No. 6,335,429), 20% sucrose (Sigma), 20 mM DTT (Sigma), 200 mM NaCl (Sigma), 40 mM Na PIPES buffer pH 7.2 (Sigma), and 500 μg/ml lysolecithin (Calbiochem) was added. The samples were mixed by agitation and incubated at room temperature.” left out
as §5

[6] = test system: DLD-1; test: Caspase activation assay in DLD-1 cells; type: cell-based; conditions: Homo sapiens, 24 h incubation, read-out: Caspase activation potency EC50 DLD-1
Description: as §3, with “After incubation, the samples were removed from the incubator and 50 μl of a solution containing 20 μM of N-(Ac-DEVD)-N′-ethoxycarbonyl-R110 (SEQ ID No:1) fluorogenic substrate (Cytovia, Inc.; U.S. Pat. No. 6,335,429), 20% sucrose (Sigma), 20 mM DTT (Sigma), 200 mM NaCl (Sigma), 40 mM Na PIPES buffer pH 7.2 (Sigma), and 500 μg/ml lysolecithin (Calbiochem) was added. The samples were mixed by agitation and incubated at room temperature.” left out
as §4, §5

[7] = test system: H1299; test: Caspase activation assay in H1299 cells; type: cell-based; conditions: Homo sapiens, NCI-H1299, 24 h incubation, read-out: Caspase activation potency EC50 H1299
Description: as §3, §4, §5

[8] = test system: MX1 human breast cancer tumors; test: In vivo antitumor activity in MX-1 model, single agent; set-up: species or system mice
Description: MX1 human breast cancer tumors were obtained from the NCI-FCRDC and maintained as tumors in nude mice. Tumor bits were implanted with a trocar into the right mammary area of female nu/nu mice and allowed to grow to an average size of 200-250 mg, about 12 days after being implanted. Animals were randomized and assigned to study groups of 8-10 animals/group. Body weight were determined and tumor size were measured by calipers and converted to volume by the standard formula of Vol=L×W^2/2. Compound 1R was formulated in 7% PEG400/9% Tween80/84% D5W and administered IV via the tail vein at the indicated days and doses. Day 1 of the study was the first day of treatment. Survival time was the number of days for the tumor to reach 1000 mg or death, whichever occurred earliest. Median survival is the median for the group.

## COc1cc([C@H]2C(C#N)=C(N)Oc3c2ccc(N)c3N)cc(Br)c1OC [Compound 1R, R(−)-2,7,8-triamino-4-(3-bromo-4,5-dimethoxy-phenyl)-3-cyano-4H-chromene]
[1]
  GI50: 9 nM
[2]
  EC50: 21 nM
[3]
  GI50: 17 nM
[4]
  EC50: 19 nM
[5]
  Caspase cascade activator and inducer of apoptosis (in words): potent caspase cascade activator and inducer of apoptosis
[6]
  EC50: 57 nM
[7]
  EC50: 62 nM
[8]; 20 mg/kg IV, once a day for days 1-3 (QD × 3)
  Median survival time: 19 days
[8]; 20 mg/kg IV, once a day for days 1-5 (QD × 5)
  Median survival time: 46 days
[8]; 20 mg/kg IV, once a week, day 1, 8, 15 (QW × 3)
  Median survival time: 27.5 days
[8]; 40 mg/kg IV, once a day for days 1-3 (QD × 3)
  Median survival time: 38 days
[8]; 40 mg/kg IV, once a day for days 1-5 (QD × 5)
  Median survival time: >100 days
[8]; 40 mg/kg IV, once a week, day 1, 8, 15 (QW × 3)
  Median survival time: 41 days
[8]; 60 mg/kg IV, once a day for days 1-3 (QD × 3)
  Median survival time: 78 days
[8]; 60 mg/kg IV, once a week, day 1, 8, 15 (QW × 3)
  Median survival time: 37.5 days
